Reference: PubChem BioAssay (NCI)
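Interpolation was linear, between the two tested concentrations surrounding the appropriate level; five concentrations were tested over 48 hours in 96-well plates. TGI: total growth inhibition.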

Assays:
Assay in all cases: growth of human tumour cells (NCI), 48 h
786-0 renal = system: 786-0 renal
A498 renal = system: A498 renal
A549 NSCLC = system: A549 NSCLC
ACHN renal = system: ACHN renal
BT-549 breast = system: BT-549 breast
CAKI-1 renal = system: CAKI-1 renal
CCRF-CEM leukemia = system: CCRF-CEM leukemia
COLO 205 colon = system: COLO 205 colon
DU-145 prostate = system: DU-145 prostate
EKVX NSCLC = system: EKVX NSCLC
HCC-2998 colon = system: HCC-2998 colon
HCT-116 colon = system: HCT-116 colon
HCT-15 colon = system: HCT-15 colon
HL-60(TB) leukemia = system: HL-60(TB) leukemia
HOP-92 NSCLC = system: HOP-92 NSCLC
HS 578T breast = system: HS 578T breast
HT29 colon = system: HT29 colon
IGROV1 ovarian = system: IGROV1 ovarian
K-562 leukemia = system: K-562 leukemia
KM12 colon = system: KM12 colon
LOX IMVI melanoma = system: LOX IMVI melanoma
M14 melanoma = system: M14 melanoma
MCF7 breast = system: MCF7 breast
MDA-MB-231 breast = system: MDA-MB-231 breast
MDA-MB-435 = system: MDA-MB-435
MOLT-4 leukemia = system: MOLT-4 leukemia
NCI-H226 lung = system: NCI-H226 lung
NCI-H23 lung = system: NCI-H23 lung
NCI-H522 lung = system: NCI-H522 lung
NCI/ADR-RES ovarian = system: NCI/ADR-RES ovarian
OVCAR-4 ovarian = system: OVCAR-4 ovarian
OVCAR-5 ovarian = system: OVCAR-5 ovarian
OVCAR-8 ovarian = system: OVCAR-8 ovarian
RPMI-8226 leukemia = system: RPMI-8226 leukemia
RXF 393 renal = system: RXF 393 renal
SF-268 CNS = system: SF-268 CNS
SF-295 CNS = system: SF-295 CNS
SF-539 CNS = system: SF-539 CNS
SK-MEL-28 melanoma = system: SK-MEL-28 melanoma
SK-MEL-5 melanoma = system: SK-MEL-5 melanoma
SK-OV-3 ovarian = system: SK-OV-3 ovarian
SN12C renal = system: SN12C renal
SNB-19 CNS = system: SNB-19 CNS
SNB-75 CNS = system: SNB-75 CNS
SW-620 colon = system: SW-620 colon
T-47D breast = system: T-47D breast
TK-10 renal = system: TK-10 renal
U251 CNS = system: U251 CNS
UACC-257 melanoma = system: UACC-257 melanoma
UACC-62 melanoma = system: UACC-62 melanoma
UO-31 renal = system: UO-31 renal
HOP-62 NSCLC = system: HOP-62 NSCLC
MALME-3M melanoma = system: MALME-3M melanoma
NCI-H460 lung = system: NCI-H460 lung
OVCAR-3 ovarian = system: OVCAR-3 ovarian
PC-3 prostate = system: PC-3 prostate
SR leukemia = system: SR leukemia

In the case of `Cc1oc2nc(N(C)C)n3nnnc3c2c1C`, the TGI (786-0 renal) is reported as > 100 µM, the TGI (A498 renal) is reported as > 100 µM and the TGI (A549 NSCLC) is reported as > 100 µM. For the same compound, the TGI (ACHN renal) was > 100 µM, the TGI (BT-549 breast) was > 100 µM and the TGI (CAKI-1 renal) was > 100 µM. For the same compound, the TGI (CCRF-CEM leukemia) was > 100 µM, the TGI (COLO 205 colon) was > 100 µM and the TGI (DU-145 prostate) was > 100 µM. For the same compound, the TGI (EKVX NSCLC) was > 100 µM, the TGI (HCC-2998 colon) was > 100 µM and the TGI (HCT-116 colon) was > 100 µM. The TGI (HCT-15 colon) was > 100 µM, the TGI (HL-60(TB) leukemia) was 63.6 µM and the TGI (HOP-92 NSCLC) was > 100 µM. The TGI (HS 578T breast) was > 100 µM, the TGI (HT29 colon) was > 100 µM and the TGI (IGROV1 ovarian) was > 100 µM. For the same compound, the TGI (K-562 leukemia) was > 100 µM, the TGI (KM12 colon) was > 100 µM and the TGI (LOX IMVI melanoma) was > 100 µM. The TGI (M14 melanoma) was > 100 µM, the TGI (MCF7 breast) was > 100 µM and the TGI (MDA-MB-231 breast) was > 100 µM. For the same compound, the TGI (MDA-MB-435) was > 100 µM, the TGI (MOLT-4 leukemia) was > 100 µM and the TGI (NCI-H226 lung) was > 100 µM. For the same compound, the TGI (NCI-H23 lung) was > 100 µM, the TGI (NCI-H522 lung) was > 100 µM and the TGI (NCI/ADR-RES ovarian) was > 100 µM. The TGI (OVCAR-4 ovarian) was > 100 µM, the TGI (OVCAR-5 ovarian) was > 100 µM and the TGI (OVCAR-8 ovarian) was > 100 µM. The TGI (RPMI-8226 leukemia) was > 100 µM, the TGI (RXF 393 renal) was > 100 µM and the TGI (SF-268 CNS) was > 100 µM. The TGI (SF-295 CNS) was > 100 µM, the TGI (SF-539 CNS) was > 100 µM and the TGI (SK-MEL-28 melanoma) was > 100 µM. For the same compound, the TGI (SK-MEL-5 melanoma) was > 100 µM, the TGI (SK-OV-3 ovarian) was > 100 µM and the TGI (SN12C renal) was > 100 µM. For the same compound, the TGI (SNB-19 CNS) was > 100 µM, the TGI (SNB-75 CNS) was > 100 µM and the TGI (SW-620 colon) was > 100 µM. For the same compound, the TGI (T-47D breast) was > 100 µM, the TGI (TK-10 renal) was > 100 µM and the TGI (U251 CNS) was > 100 µM. The TGI (UACC-257 melanoma) was > 100 µM, the TGI (UACC-62 melanoma) was > 100 µM and the TGI (UO-31 renal) was > 100 µM.

For `COc1cc2c(cc1OC)C(=O)/C(=C/c1cc(C)c(O)c(C)c1)C2`, the TGI (A498 renal) was > 100 µM, the TGI (A549 NSCLC) was > 100 µM and the TGI (ACHN renal) was > 100 µM. The TGI (BT-549 breast) was > 100 µM, the TGI (CAKI-1 renal) was > 100 µM and the TGI (CCRF-CEM leukemia) was > 100 µM. For the same compound, the TGI (COLO 205 colon) was > 100 µM, the TGI (DU-145 prostate) was > 100 µM and the TGI (EKVX NSCLC) was > 100 µM. For the same compound, the TGI (HCC-2998 colon) was > 100 µM, the TGI (HCT-15 colon) was > 100 µM and the TGI (HL-60(TB) leukemia) was > 100 µM. For the same compound, the TGI (HOP-62 NSCLC) was > 100 µM, the TGI (HOP-92 NSCLC) was > 100 µM and the TGI (HS 578T breast) was > 100 µM. The TGI (IGROV1 ovarian) was > 100 µM, the TGI (K-562 leukemia) was > 100 µM and the TGI (LOX IMVI melanoma) was > 47.3 µM. For the same compound, the TGI (M14 melanoma) was > 100 µM, the TGI (MALME-3M melanoma) was 40.1 µM and the TGI (MCF7 breast) was > 100 µM. For the same compound, the TGI (MDA-MB-231 breast) was > 100 µM, the TGI (MOLT-4 leukemia) was > 100 µM and the TGI (NCI-H226 lung) was > 59.7 µM. The TGI (NCI-H23 lung) was > 100 µM, the TGI (NCI-H460 lung) was > 100 µM and the TGI (NCI-H522 lung) was > 95.9 µM. The TGI (NCI/ADR-RES ovarian) was > 100 µM, the TGI (OVCAR-3 ovarian) was > 100 µM and the TGI (OVCAR-4 ovarian) was > 100 µM. The TGI (OVCAR-5 ovarian) was 13.5 µM, the TGI (PC-3 prostate) was > 100 µM and the TGI (RPMI-8226 leukemia) was > 100 µM. For the same compound, the TGI (RXF 393 renal) was 0.439 µM, the TGI (SF-268 CNS) was > 100 µM and the TGI (SF-539 CNS) was > 100 µM. The TGI (SK-MEL-28 melanoma) was > 100 µM, the TGI (SK-MEL-5 melanoma) was > 100 µM and the TGI (SK-OV-3 ovarian) was > 100 µM. The TGI (SN12C renal) was > 100 µM, the TGI (SNB-19 CNS) was > 100 µM and the TGI (SNB-75 CNS) was > 100 µM. The TGI (SR leukemia) was > 100 µM, the TGI (SW-620 colon) was > 100 µM and the TGI (T-47D breast) was > 100 µM. For the same compound, the TGI (TK-10 renal) was > 100 µM, the TGI (U251 CNS) was > 100 µM and the TGI (UACC-257 melanoma) was > 100 µM. For the same compound, the TGI (UACC-62 melanoma) was > 100 µM and the TGI (UO-31 renal) was > 100 µM.
